The text below walks through data of patent US20190151289A1, “Identification of Small Molecule Inhibitors of Jumonji AT-Rich Interactive Domain 1A (JARID1A) Histone Demethylase” (YALE UNIVERSITY, priority 2016, published 2019).

The target of experiment [1] is T1, KDM5C (Homo sapiens, UniProt P41229).
T1 construct: FLAG; made in house
The experiment is described as follows: AlphaScreen KDM5C demethylation assay. Format: biochemical. The protocol: Histone demethylase assays were performed using previously described methods (Sayegh et al., 2013, J. Biol. Chem. 9408-9417), with the exception of all enzyme reactions containing 125 μM α-KG. Enzymes were used at the following approximate concentrations in validation experiments, chosen based on their activity in AlphaScreen assays: 19 nM FLAG-KDM5A, 15 nM FLAG-KDM5B, 6 nM FLAG-KDM5C, 29 nM His-FLAG-KDM6A, and 16 nM FLAG-KDM6B. 24 nM FLAG-KDM5A was used for Km determination experiments. Reactions were carried out for 1 hour, or were stopped by addition of 30 mM EDTA every 5 minutes for determining enzyme kinetics. Km values were calculated using the Michaelis-Menten non-linear regression analysis on GraphPad Prism 6.0 software. The concentration of DMSO in demethylation reactions was 0.05%. For reactions with catalase, catalase (Sigma C30) or an equal volume of dilution buffer was added to the peptide-containing buffer before addition of the demethylase. The final concentration of catalase in the reactions was 0.01 mg/ml.
The AlphaScreen general IgG (protein A) detection kit from PerkinElmer Life Sciences was used as described previously (Sayegh et al., 2013, J. Biol. Chem. 9408-9417). The luminescence emission was recorded at 570 nm using the AlphaScreen optic module on a Pherastar (BMG Labtech) or Envision (PerkinElmer Life Sciences) microplate reader.
A general note: Bead proximity is the source of the signal in Alpha formats.

For experiment [2], the system named is H3K4 methylation in HeLa cells. As to the kind of experiment: Western blot of global H3K4 methylation, HeLa. In kind it is cell-based, human. The method, then: (§1) Sf21 insect cells were cultured at 27° C. in Grace's medium (Gibco) with 10% fetal bovine serum (FBS) and 1% penicillin/streptomycin. HeLa cells were cultured in DMEM (Gibco) with 10% FBS and 1% penicillin/streptomycin. BT474, MCF7, MDA-MB-231, PC9 and ZR-75-1 cells were cultured in RPMI 1640 (Gibco) with 10% FBS and 1% penicillin/streptomycin. MCF10A cells were cultured as using previously described methods (Sayegh et al., 2013, J. Biol. Chem. 9408-9417). All human cells were cultured at 37° C. and 5% carbon dioxide. HeLa and MCF7 cell lines were authenticated using short tandem repeat profiling performed at the DNA Analysis Facility on Science Hill at Yale University. All other human cell lines used were within 10 passages after being obtained from the American Type Culture Collection.
Cells were lysed using previously described methods (Lin et al., 2011, Proc. Natl. Acad. Sci. U.S.A. 108:13379-13386). Histones were separated by centrifugation, resuspended in Laemmeli buffer, and sonicated. Protein concentration of cell lysates was measured by Bradford assay. Samples in Laemmeli buffer were boiled 10 minutes at 95° C. and loaded onto 7% (whole cell lysates) or 18% (histones) SDS-PAGE gels. Membranes were blocked in 4% non-fat milk in Tris-buffered saline with 0.05% Tween (TBS-T) and incubated with primary antibodies in the same buffer or 5% bovine serum albumin in TBS-T overnight at 4° C. Membranes were incubated with secondary anti-rabbit or anti-mouse antibodies for one hour at room temperature. Blots were visualized by Thermo Scientific Pierce ECL Western Blotting Substrate (32106) or EMD Millipore Immobilon Western Chemiluminescent HRP Substrate (WBKLS0100) on film. Signal was quantified using ImageJ software.
A general note: Immunoblotting shows a protein as a band on a membrane.

Experiment [3] concerns H3K4 methylation in ZR-75-1 cells. The experiment is described as follows: Western blot of global H3K4 methylation, ZR-75-1. In kind it is cell-based, human. Conditions: ZR-75-1, 48 hour treatment. The method, then:
as §1
(§2) Cells were lysed using previously described methods (Lin et al., 2011, Proc. Natl. Acad. Sci. U.S.A. 108:13379-13386). Histones were separated by centrifugation, resuspended in Laemmeli buffer, and sonicated. Protein concentration of cell lysates was measured by Bradford assay. Samples in Laemmeli buffer were boiled 10 minutes at 95° C. and loaded onto 7% (whole cell lysates) or 18% (histones) SDS-PAGE gels. […] Signal was quantified using ImageJ software.

The test system of experiment [4] is H3K4 methylation in MDA-MB-231 cells. As to the kind of experiment: Western blot of global H3K4 methylation, MDA-MB-231. Conditions: MDA-MB-231, 72 hr treatment. In kind it is cell-based, human. The protocol: as §1, §2
In experiment [5] the test system is H3K4 methylation in MCF10A cells. As to the kind of experiment: Western blot of global H3K4 methylation, MCF10A. Format: cell-based, human. Conditions: 72 hr treatment. The protocol:
as §1, §2

In experiment [6] the test system is HeLa cells. As to the kind of experiment: WST-1 cell proliferation assay, HeLa. In kind it is cell-based, human. Conditions: after 3 days. The protocol:
(§3) WST-1 reagent from Roche Applied Sciences (11644807001) was used to measure cell number before drug addition and after 3 or 5 days of growth using previously described methods (Sayegh et al., 2013, J. Biol. Chem. 9408-9417). Cells were seeded in 96-well plates at the following number of cells per well: HeLa (2000), MCF7 (2000), ZR-75-1 (1000), MCF10A (1000), MDA-MB-231(5000). Assays were performed in technical quadruplicates and biological triplicates. DMSO was used at 0.1%. Relative absorbance was calculated by subtracting the average background (media only) signal, dividing by the average signal on day 0, and then dividing by the average day 5/day 0 ratio for the DMSO controls. Significance was calculated by unpaired, two-tailed student's t-test using GraphPad Prism 6.0 software.

Experiment [7] deals with ZR-75-1 cells. The experiment is described as follows: WST-1 cell proliferation assay, ZR-75-1. Format: cell-based, human. Conditions: ZR-75-1, 5 days of treatment. The method, then:
as §3
(Tetrazolium dyes change colour on reduction, which living cells bring about.)

Experiment [8] relates to MCF10A cells. The experiment is described as follows: WST-1 cell proliferation assay, MCF10A. In kind it is cell-based, human. Conditions: 5 days of treatment. The protocol: as §3
Experiment [9] relates to PC9 cells. As to the kind of experiment: Colony formation assay, PC9 (gefitinib tolerance). Format: cell-based, human. The protocol: (§4) Cells were seeded in 6-well plates at low density: HeLa, MCF7, BT474, and PC9 cells at 1000, 2000, 2500, and 2000 cells/well respectively. Media containing the prescribed drugs or 0.1% DMSO was replaced every 3 days. Trastuzumab was used at 5 μg/ml. Gefitinib was used at 2 μM. YUKA1 was used at 50 or 100 μM. Doxycycline was used at 1 μg/ml for 3 days. After 7-42 days depending on the rate of cell growth, cells were fixed in 4% para-formaldehyde in phosphate-buffered saline for 10 minutes rocking at room temperature. They were incubated in 0.05% crystal violet in double-distilled water for 30 minutes rocking at room temperature, washed with water, and dried 24 hours before photographing. ColonyArea, a plugin for ImageJ software, was used for quantification (Guzman et al., 2014, PloS One 9:e92444). Unpaired, two-tailed student's t-test was used to determine significance using GraphPad Prism 6.0 software.

Experiment [10] relates to BT474 cells. The experiment is described as follows: Colony formation assay, BT474 (trastuzumab tolerance). Format: cell-based, human. The protocol: as §4
The test system of experiment [11] is MDA-MB231 cells. As to the kind of experiment: Colony formation assay, MDA-MB231. Format: cell-based, human. Conditions: 5 μM KDMS-C70 or 50 or 100 μM YUKA1. The protocol: as §4
HeLa (FIG. 11A) and MDA-MB231 cells (FIG. 11B) were treated with DMSO, 5 μM KDMS-C70 or 50 or 100 μM YUKA1 in colony-formation assays. The tables in FIGS. 11C and 11D depict the quantification of experimental data.

T1 sequence (P41229 whole entry): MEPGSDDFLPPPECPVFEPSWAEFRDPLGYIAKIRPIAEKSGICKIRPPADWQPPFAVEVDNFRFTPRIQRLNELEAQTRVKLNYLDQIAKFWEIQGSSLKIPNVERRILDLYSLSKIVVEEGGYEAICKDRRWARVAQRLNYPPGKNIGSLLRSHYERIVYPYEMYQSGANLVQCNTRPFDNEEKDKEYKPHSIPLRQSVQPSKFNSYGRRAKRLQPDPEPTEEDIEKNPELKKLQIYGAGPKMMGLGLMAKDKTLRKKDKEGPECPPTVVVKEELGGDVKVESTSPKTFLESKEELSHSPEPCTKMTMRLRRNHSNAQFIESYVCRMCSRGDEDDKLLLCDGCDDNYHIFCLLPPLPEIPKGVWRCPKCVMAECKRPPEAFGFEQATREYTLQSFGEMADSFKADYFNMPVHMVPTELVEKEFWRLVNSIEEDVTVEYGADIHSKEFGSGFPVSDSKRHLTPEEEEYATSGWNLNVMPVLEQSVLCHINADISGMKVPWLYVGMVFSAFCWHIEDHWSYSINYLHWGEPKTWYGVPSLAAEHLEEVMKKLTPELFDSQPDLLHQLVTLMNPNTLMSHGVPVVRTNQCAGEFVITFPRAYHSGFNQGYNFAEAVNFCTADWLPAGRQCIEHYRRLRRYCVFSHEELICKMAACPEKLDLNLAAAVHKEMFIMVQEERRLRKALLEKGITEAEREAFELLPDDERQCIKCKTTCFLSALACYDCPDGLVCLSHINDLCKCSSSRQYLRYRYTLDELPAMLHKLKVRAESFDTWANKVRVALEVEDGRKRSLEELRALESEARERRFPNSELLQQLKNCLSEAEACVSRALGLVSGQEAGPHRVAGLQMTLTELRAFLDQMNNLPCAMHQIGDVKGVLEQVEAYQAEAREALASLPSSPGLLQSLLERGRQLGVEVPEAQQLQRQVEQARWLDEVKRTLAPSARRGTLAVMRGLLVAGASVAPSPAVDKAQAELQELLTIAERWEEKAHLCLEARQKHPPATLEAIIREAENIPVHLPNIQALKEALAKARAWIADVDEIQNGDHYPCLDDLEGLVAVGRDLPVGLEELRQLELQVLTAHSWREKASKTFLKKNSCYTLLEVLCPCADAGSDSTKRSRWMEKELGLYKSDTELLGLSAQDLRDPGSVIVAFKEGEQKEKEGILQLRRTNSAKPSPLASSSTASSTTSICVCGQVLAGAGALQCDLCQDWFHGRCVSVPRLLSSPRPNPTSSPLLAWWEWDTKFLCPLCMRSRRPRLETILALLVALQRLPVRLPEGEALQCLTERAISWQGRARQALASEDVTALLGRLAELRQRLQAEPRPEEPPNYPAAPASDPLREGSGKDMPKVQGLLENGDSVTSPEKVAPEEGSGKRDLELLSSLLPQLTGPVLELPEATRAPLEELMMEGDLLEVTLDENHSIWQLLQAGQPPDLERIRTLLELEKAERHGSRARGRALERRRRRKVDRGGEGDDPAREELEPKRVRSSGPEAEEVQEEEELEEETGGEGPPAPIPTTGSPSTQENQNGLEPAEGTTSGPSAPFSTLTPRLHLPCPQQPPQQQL

On to `C=CCOc1c(CNn2cnnc2S)cccc1OC` [YUKA1, 4-([2-(allyloxy)-3-methoxybenzyl]amino)-4H-1,2,4-triazole-3-thiol], for which the “fold less active against KDM5C (vs KDM5A)” value in [1] is recorded as ~3 fold. Moreover, the “H3K4me2 and H3K4me1 levels” value in experiment [2] (HeLa) is “increased”. Also, the “cell activity by global H3K4 methylation changes” value in [2] (HeLa and MCF7 cell lines, western blot) is “cell-active”. Besides, the “global H3K4me3 levels” value in experiment [2] (HeLa, 48 hour treatment) is reported as “dose-dependent increase”; in [3], “increased global H3K4me3 levels”. Also, the H3K4 methylation entry in experiment [4] is “only minor changes”. Besides, in [5], the H3K4 methylation levels entry is “did not affect H3K4 methylation levels”. Also, in [6], the “cell proliferation relative to DMSO” value is listed as “less than half of DMSO-treated cells”. Also, the figures for the cell proliferation result in [7] and in experiment [8] were “decreased cell proliferation during 5 days of treatment in a dose-dependent manner” and “did not hinder cell proliferation”, respectively. Further, the “cell growth, compound alone” value in [9] (PC9, compound alone) is listed as “not significantly affected”; in [10] (BT474, compound alone), “not changed”. Moreover, the “colony formation under gefitinib vs DMSO control” value in experiment [9] (PC9, long-term treatment with 2 μM gefitinib plus compound) is recorded as “fewer YUKA1-treated cells formed colonies”. Also, the “emergence of colonies under trastuzumab” value in [10] (BT474, trastuzumab 5 μg/ml plus compound) is listed as “significantly less”. In [11], the “growth in colony-formation assay” value is listed as “suppresses growth”.
